Reference: patent publication US7435587B2, “Apparatus for growing cells under variable hydrostatic pressures” (Memorial Sloan-Kettering Cancer Center, priority 2002, dated 2008)
“Also recorded” adds a separate entry of the source.

Key:
Format in all cases: cell-based, human
HOS cells [1] = assay: Chemosensitivity testing in a pressurized cassette-HPA system (in situ cell counts); settings: for differences in growth between the pressurized and non-pressurized systems: 0 vs 20 mmHg, 72 h under pressure with drug, at 0.16 and 1 μ/ml; for difference in viability (cell counts under pressure) between 0 and 20 mmHg: testing under pressure, clinically relevant range of 0.04 to 4 μ/ml
Description: To investigate chemosensitivity in a pressurized system, 1.5×10^4 HOS cells were seeded in 16 cassettes. These were incubated for 24 hours and baseline counts were made at the end of 24 hours. Serial dilutions of doxorubicin were added at a dose of 0 μg/ml, 0.16 μg/ml, 1 μg/ml and 8 μg/ml. […] Two sets were provided for each drug at 0 and 20 mmHg. Pressurization proceeded for 72 hours as described above. At the end of this time point, in situ cell growth over the identical 5 high power fields recorded after the first 24 hours were made. The observer was blinded to the identity of the sample being read. Cell growth was expressed as a ratio between the 72 hour and baseline 24 hour counts. This was then normalized to the readings for cells that were not exposed to chemotherapy (i.e. 0 μg/ml). This was done to account for cell growth changes that could result from the pressure effect itself. Student's T-test was used to assess for significance between the results of chemosensitivity at 0 and 20 mmHg. […] Each data point represents the mean of five readings with error bars representing the standard error of the mean.

HOS cells [2] = assay: Conventional 96-well chemosensitivity testing of HOS cells grown under pressure, de-pressurized, trypsinized and reattached 24 h (Alamar blue); settings: tested at atmospheric pressure, p<0.05; for difference in the ED50 between cells grown at atmospheric pressure and those grown under 20 mmHg of pressure: HOS cells grown 72 h at 0 vs 20 mmHg, de-pressurized, difference is small
Description: HOS cells were pressurized at 0 and 20 mmHg for 72 hours. At the end of this time point the growth membrane was removed and discs were created with a sterile punch. These discs bearing 2000 cells/disc were placed within each of the wells in a Costar 96-well plate (Bio-Rad, Hercules, Calif.). Serial dilutions of doxorubicin were immediately applied to the wells at a dose of 100 μg/ml to 0.00128 μg/ml. These were allowed an exposure time of 24 hours and then washed with PBS and 200 μl growth media replaced for a further 24 hours 25 μl of Alamar blue dye® (BioSource International, Camarillo, Calif.) was added for a further 8 hours and metabolic activity read with a Cytofluor® plate reader (Applied Biosystems, Foster City, Calif.). Metabolic activity was expressed as per manufacturer recommendations (BioSource International, Camarillo, Calif.). The experiment was repeated using cells grown at 72 hours under pressure, de-pressurized to atmospheric pressure and then trypsinized and seeded at 2000 cells per well and allowed 24 hours to gain attachment. They were then treated with doxorubicin. Assessment was completed as above. […] Student's t-test was used to assess for significance between the results of chemosensitivity at 0 and 20 mmHg. […] Each data point represents the mean of six readings with error bars representing the standard deviation.

HOS cells [3] = assay: Chemosensitivity testing of membrane discs bearing pressurized HOS cells immediately exposed to drug in 96-well plate (Alamar blue); settings: HOS cells grown under pressure 72 h, cut from membranes, 24 h drug exposure at atmospheric pressure, no 24 h de-pressurization
Description: HOS cells were pressurized at 0 and 20 mmHg for 72 hours. At the end of this time point the growth membrane was removed and discs were created with a sterile punch. These discs bearing 2000 cells/disc were placed within each of the wells in a Costar 96-well plate (Bio-Rad, Hercules, Calif.). Serial dilutions of doxorubicin were immediately applied to the wells at a dose of 100 μg/ml to 0.00128 μg/ml. These were allowed an exposure time of 24 hours and then washed with PBS and 200 μl growth media replaced for a further 24 hours 25 μl of Alamar blue dye® (BioSource International, Camarillo, Calif.) was added for a further 8 hours and metabolic activity read with a Cytofluor® plate reader (Applied Biosystems, Foster City, Calif.). Metabolic activity was expressed as per manufacturer recommendations (BioSource International, Camarillo, Calif.).

N.N.[Cl][Pt][Cl] [cisplatin]
differences in growth between the pressurized and non-pressurized systems (HOS cells [1]): marked differences in growth
difference in viability (cell counts under pressure) between 0 and 20 mmHg (HOS cells [1]): dramatic difference in viability
difference in the ED50 between cells grown at atmospheric pressure and those grown under 20 mmHg of pressure (HOS cells [2]): statistically significant difference

COc1cccc2c1C(=O)c1c(O)c3c(c(O)c1C2=O)C[C@@](O)(C(=O)CO)C[C@@H]3O[C@H]1C[C@H](N)[C@H](O)[C@H](C)O1 [doxorubicin]
difference in sensitivity between cells grown at 0 and 20 mmHg, membranes immediately exposed to drug (HOS cells [3]): this difference became more pronounced; also recorded: dramatic differences to sensitivity
differences in growth between the pressurized and non-pressurized systems (HOS cells [1]): marked differences in growth
difference in viability (cell counts under pressure) between 0 and 20 mmHg (HOS cells [1]): dramatic difference in viability
difference in the ED50 between cells grown at atmospheric pressure and those grown under 20 mmHg of pressure (HOS cells [2]): statistically significant difference
difference in cytotoxicity between cells grown at 0 and 20 mmHg (HOS cells [2]; depressurized HOS cells, drug concentration range 0.04 to 4 μg/ml): statistically significant difference in cytotoxicity
